Values quoted from earlier work in patent US20060046268A1, “Diagnosis of anemia and optimizing treatment for heart repair” (Australian Stem Cell Centre Ltd., priority 2004, published 2006).

Tested on: renal transplant patients
Conditions: reversed upon ceasing administration of the drug, Vlahakos et al., Am J Kidney Dis 17:199-205

- anemia (impact on function of the hematopoietic system): reversible anemia
SMILES: CCOC(=O)[C@H](CCc1ccccc1)N[C@@H](C)C(=O)N1CCC[C@H]1C(=O)O [Enalapril]
